Reference: PubChem BioAssay (NCI)
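Following 48 hours of exposure in 96-well plates, responses at five concentrations were used to interpolate endpoints linearly. TGI: concentration producing complete growth inhibition.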

Legend:
Test in all cases: DTP human tumour cell line panel, 48 h
PC-3 prostate = test system: PC-3 prostate
IGROV1 ovarian = test system: IGROV1 ovarian
RXF 393 renal = test system: RXF 393 renal
NCI-H522 lung = test system: NCI-H522 lung
SK-MEL-28 melanoma = test system: SK-MEL-28 melanoma
MOLT-4 leukemia = test system: MOLT-4 leukemia
SK-MEL-2 melanoma = test system: SK-MEL-2 melanoma
HCT-15 colon = test system: HCT-15 colon
NCI-H226 lung = test system: NCI-H226 lung
SNB-19 CNS = test system: SNB-19 CNS
KM12 colon = test system: KM12 colon
MDA-MB-231 breast = test system: MDA-MB-231 breast
EKVX NSCLC = test system: EKVX NSCLC
OVCAR-5 ovarian = test system: OVCAR-5 ovarian
SF-539 CNS = test system: SF-539 CNS
SF-295 CNS = test system: SF-295 CNS
UO-31 renal = test system: UO-31 renal
COLO 205 colon = test system: COLO 205 colon
MALME-3M melanoma = test system: MALME-3M melanoma
SK-MEL-5 melanoma = test system: SK-MEL-5 melanoma
HCT-116 colon = test system: HCT-116 colon
SNB-75 CNS = test system: SNB-75 CNS
HOP-62 NSCLC = test system: HOP-62 NSCLC
OVCAR-4 ovarian = test system: OVCAR-4 ovarian
NCI-H460 lung = test system: NCI-H460 lung
NCI/ADR-RES ovarian = test system: NCI/ADR-RES ovarian
U251 CNS = test system: U251 CNS
HCC-2998 colon = test system: HCC-2998 colon
MCF7 breast = test system: MCF7 breast
NCI-H23 lung = test system: NCI-H23 lung
M14 melanoma = test system: M14 melanoma
UACC-62 melanoma = test system: UACC-62 melanoma
BT-549 breast = test system: BT-549 breast
ACHN renal = test system: ACHN renal
SN12C renal = test system: SN12C renal
CAKI-1 renal = test system: CAKI-1 renal
OVCAR-8 ovarian = test system: OVCAR-8 ovarian
SW-620 colon = test system: SW-620 colon
HS 578T breast = test system: HS 578T breast
LOX IMVI melanoma = test system: LOX IMVI melanoma
SK-OV-3 ovarian = test system: SK-OV-3 ovarian
UACC-257 melanoma = test system: UACC-257 melanoma
HL-60(TB) leukemia = test system: HL-60(TB) leukemia
RPMI-8226 leukemia = test system: RPMI-8226 leukemia
K-562 leukemia = test system: K-562 leukemia
MDA-N = test system: MDA-N
MDA-MB-435 = test system: MDA-MB-435
786-0 renal = test system: 786-0 renal
SR leukemia = test system: SR leukemia
A549 NSCLC = test system: A549 NSCLC
TK-10 renal = test system: TK-10 renal
HT29 colon = test system: HT29 colon
SF-268 CNS = test system: SF-268 CNS
T-47D breast = test system: T-47D breast
HOP-92 NSCLC = test system: HOP-92 NSCLC
DU-145 prostate = test system: DU-145 prostate
OVCAR-3 ovarian = test system: OVCAR-3 ovarian
A498 renal = test system: A498 renal

N#CC1CCN2N=C(c3ccccc3)SC12c1ccccc1 (stereo not given)
TGI (PC-3 prostate): > 100 µM | TGI (IGROV1 ovarian): > 100 µM | TGI (RXF 393 renal): > 100 µM | TGI (NCI-H522 lung): > 100 µM | TGI (SK-MEL-28 melanoma): > 100 µM | TGI (MOLT-4 leukemia): 83.4 µM | TGI (SK-MEL-2 melanoma): > 100 µM | TGI (HCT-15 colon): > 100 µM | TGI (NCI-H226 lung): > 100 µM | TGI (SNB-19 CNS): > 100 µM | TGI (KM12 colon): > 100 µM | TGI (MDA-MB-231 breast): > 100 µM | TGI (EKVX NSCLC): 97.3 µM | TGI (OVCAR-5 ovarian): > 100 µM | TGI (SF-539 CNS): > 100 µM | TGI (SF-295 CNS): > 100 µM | TGI (UO-31 renal): > 100 µM | TGI (COLO 205 colon): > 100 µM | TGI (MALME-3M melanoma): > 100 µM | TGI (SK-MEL-5 melanoma): > 100 µM | TGI (HCT-116 colon): > 100 µM | TGI (SNB-75 CNS): > 100 µM | TGI (HOP-62 NSCLC): > 100 µM | TGI (OVCAR-4 ovarian): > 100 µM | TGI (NCI-H460 lung): > 100 µM | TGI (NCI/ADR-RES ovarian): > 100 µM | TGI (U251 CNS): > 100 µM | TGI (HCC-2998 colon): > 100 µM | TGI (MCF7 breast): > 100 µM | TGI (NCI-H23 lung): > 100 µM | TGI (M14 melanoma): > 100 µM | TGI (UACC-62 melanoma): 29.5 µM | TGI (BT-549 breast): > 100 µM | TGI (ACHN renal): > 100 µM | TGI (SN12C renal): > 100 µM | TGI (CAKI-1 renal): > 100 µM | TGI (OVCAR-8 ovarian): > 100 µM | TGI (SW-620 colon): > 100 µM | TGI (HS 578T breast): > 100 µM | TGI (LOX IMVI melanoma): > 100 µM | TGI (SK-OV-3 ovarian): > 100 µM | TGI (UACC-257 melanoma): > 100 µM | TGI (HL-60(TB) leukemia): > 100 µM | TGI (RPMI-8226 leukemia): > 100 µM | TGI (K-562 leukemia): > 100 µM | TGI (MDA-N): > 100 µM | TGI (MDA-MB-435): > 100 µM | TGI (786-0 renal): > 100 µM | TGI (SR leukemia): > 100 µM | TGI (A549 NSCLC): > 100 µM | TGI (TK-10 renal): > 100 µM | TGI (HT29 colon): > 100 µM | TGI (SF-268 CNS): > 100 µM | TGI (T-47D breast): > 100 µM | TGI (HOP-92 NSCLC): > 100 µM

O=C(OCC12CC3CC(CC(C3)C1)C2)c1ccc(NCc2cc(O)ccc2O)cc1
TGI (DU-145 prostate): 18.7 µM | TGI (PC-3 prostate): 4.88 µM | TGI (IGROV1 ovarian): 3.21 µM | TGI (RXF 393 renal): 3.03 µM | TGI (NCI-H522 lung): 0.854 µM | TGI (SK-MEL-28 melanoma): 3.54 µM | TGI (OVCAR-3 ovarian): 1.67 µM | TGI (SK-MEL-2 melanoma): 8.12 µM | TGI (HCT-15 colon): 5.75 µM | TGI (NCI-H226 lung): 6.71 µM | TGI (SNB-19 CNS): 11 µM | TGI (KM12 colon): 4.52 µM | TGI (MDA-MB-231 breast): 11.6 µM | TGI (EKVX NSCLC): 9.26 µM | TGI (OVCAR-5 ovarian): 4.71 µM | TGI (SF-539 CNS): 1.93 µM | TGI (SF-295 CNS): 17.7 µM | TGI (UO-31 renal): 1.96 µM | TGI (COLO 205 colon): 2.8 µM | TGI (SK-MEL-5 melanoma): 2.9 µM | TGI (HCT-116 colon): 10.3 µM | TGI (SNB-75 CNS): 7.23 µM | TGI (HOP-62 NSCLC): 16 µM | TGI (OVCAR-4 ovarian): 6.28 µM | TGI (NCI-H460 lung): 7.5 µM | TGI (NCI/ADR-RES ovarian): 8.97 µM | TGI (U251 CNS): 5.33 µM | TGI (HCC-2998 colon): 4.02 µM | TGI (MCF7 breast): 36.8 µM | TGI (NCI-H23 lung): 3.88 µM | TGI (M14 melanoma): 5.77 µM | TGI (UACC-62 melanoma): 3.93 µM | TGI (BT-549 breast): 1.25 µM | TGI (ACHN renal): 7.04 µM | TGI (SN12C renal): 18.7 µM | TGI (CAKI-1 renal): 2.06 µM | TGI (OVCAR-8 ovarian): 7.28 µM | TGI (SW-620 colon): > 25.7 µM | TGI (HS 578T breast): 12.1 µM | TGI (LOX IMVI melanoma): 4.72 µM | TGI (SK-OV-3 ovarian): 20.4 µM | TGI (UACC-257 melanoma): 3.28 µM | TGI (HL-60(TB) leukemia): 15 µM | TGI (RPMI-8226 leukemia): 1.68 µM | TGI (K-562 leukemia): > 49.2 µM | TGI (MDA-N): 16.7 µM | TGI (MDA-MB-435): 7.06 µM | TGI (786-0 renal): 2.35 µM | TGI (A549 NSCLC): 12.6 µM | TGI (TK-10 renal): 4.83 µM | TGI (HT29 colon): 14.6 µM | TGI (SF-268 CNS): 20.5 µM | TGI (A498 renal): 11.8 µM | TGI (T-47D breast): 2.06 µM | TGI (HOP-92 NSCLC): 17.6 µM
